# Source: paper PMC12035797, “Peptidomimetics Activating the Proteasome: A New Perspective for Parkinson’s Treatment” (Journal of Medicinal Chemistry, 2025)
# What was measured:
# hippocampal cells = assay: Survival of hippocampal cells after 7 days with activators (PFF model); format: cell-based, mouse; conditions: 0.5 and 2.5 μM, PFF-treated
# Source text: Encouraged by the results received, we tested the ability of the modulator-CPP constructs to increase α-synuclein degradation in a cell model using primary mouse neuronal cells. The presence of Lewy-like neurites and Lewy-like bodies containing aggregated α-synuclein with phosphorylated serine 129 (pS129-αsyn) is a characteristic feature of the brains of people with Parkinson’s disease. To mimic these aggregations, we introduced a solution of preformed fibrils (PFFs) to the media of neuronal cells, which led to the induction of α-synuclein phosphorylation and its aggregation in neurons isolated from mouse embryos. PFFs are purified, prion-like fibrils of α-synuclein that are produced by expressing a recombinant monomeric protein in bacteria. Seven days after PFFs are introduced to the cells, large aggregates are visible in the cell soma, often next to the cell nucleus. We added the PFF solution to the hippocampal cells, and after an hour of incubation, we introduced solutions of the activator. After 7 days, we immunostained neuronal cells using a monoclonal antibody against the NeuN protein, which is commonly used in neuronal differentiation studies to assess their functional status. Additionally, we stained the nuclei of all incubated cells with DAPI. […]
# [1] = tested on: T1, proteasome in HEK293T cell lysate; assay: Proteasome activity in the HEK293T cell lysate, Suc-LLVY-AMC; format: biochemical, human
# T1 construct: endogenous in cells; host or cells: HEK293T cell lysate
# Procedure: To assess whether activators are able to stimulate the proteasome in the cellular environment, we conducted experiments using the HEK293T cell lysate. […] The experiment was carried out as it was described.[25] Briefly, HEK293T cells were lysed, and the lysate was treated with the modulators at a concentration of 1, 2.5, 5, 10, and 25 μM, only in the case of modulators with the TAT or 6R sequence attached were the concentrations 0.5, 1, 2.5, 5, and 10 μM. The proteasome activity was probed using Suc-LLVY-AMC substrate. One μM bortezomib was used as a negative control. All experiments were performed in at least three independent replicates. One-way ANOVA with Tukey’s post-hoc test was used to determine statistical significance.
structure (smiles),measurement,setting,value
C[C@@H](O)[C@H](NC(=O)[C@H](Cc1ccccc1)NC(=O)[C@H](Cc1ccc(O)cc1)NC(=O)CN(CCCCN)C(=O)[C@H](CCCNC(=N)N)NC(=O)[C@H](CCCNC(=N)N)NC(=O)[C@H](CCCNC(=N)N)NC(=O)[C@H](CCC(N)=O)NC(=O)[C@H](CCCNC(=N)N)NC(=O)[C@H](CCCNC(=N)N)NC(=O)[C@H](CCCCN)NC(=O)[C@H](CCCCN)NC(=O)[C@@H](N)CCCNC(=N)N)C(=O)NCC(=O)N[C@@H](CO)C(=O)N[C@@H](CCCCN)C(=O)N[C@@H](CC(=O)O)C(=O)N[C@@H](Cc1c[nH]c2ccccc12)C(=O)N[C@@H](CCCNC(=N)N)C(=O)N[C@@H](CO)C(=O)N[C@@H](Cc1ccc(O)cc1)C(=O)N[C@@H](Cc1ccc(O)cc1)C(=O)N[C@@H](CO)C(=O)O [1f],cytotoxicity to hippocampal cells,hippocampal cells,did not show cytotoxicity to hippocampal cells
same,activation of the proteasome in HEK293T cell lysate,[1]; 5 μM,approximately 4 fold
same,efficacy in HEK293T cell lysate,[1]; compared with 1a,higher efficacy than their parent compound 1a
